Experimental data published in patent publication US20120277197A1, “TIGECYCLINE FORMULATIONS” (WYETH, priority 2008, published 2012).

Assays:
[1] = Effect of pH on stability of tigecycline 0.50 mg/ml in Normal Saline, in a flask at 25° C.; format: physicochemical
Procedure: The effect of pH on the stability of tigecycline formulations having a concentration of 0.50 mg tigecycline/ml in a Normal Saline solution was studied by analyzing the variation of tigecycline content, total impurity content, and the concentration of tigecycline epimer at different pH values, either in the presence of air or under an atmosphere having an oxygen content of less than 1 ppm, in a flask at 25° C.

[2] = simple oral immediate release prototypes, animals; cited from earlier work
[3] = pH 4.5, 72 h, in the presence of air
[4] = pH 5.0, 0 h, in the presence of air
[5] = pH 5.0, 24 h, in the presence of air
[6] = pH 5.0, 72 h, in the presence of air
[7] = pH 5.5, 0 h, in the presence of air
[8] = pH 5.5, 24 h, in the presence of air
[9] = pH 5.5, 72 h, in the presence of air
[10] = pH 6.5, 0 h, in the presence of air
[11] = pH 6.5, 8 h, in the presence of air
[12] = pH 6.5, 24 h, in the presence of air
[13] = pH 6.5, 72 h, in the presence of air
[14] = pH 8.0, 0 h, in the presence of air
[15] = pH 8.0, 8 h, in the presence of air
[16] = pH 8.0, 24 h, in the presence of air
[17] = pH 8.0, 72 h, in the presence of air

## CN(C)c1cc(NC(=O)CNC(C)(C)C)c(O)c2c1C[C@H]1C[C@H]3[C@H](N(C)C)C(O)=C(C(N)=O)C(=O)[C@@]3(O)C(O)=C1C2=O [tigecycline, Tigecycline]
[1]; pH 4.5, 24 h, oxygen <1 ppm
  Total impurity content as a % of initial weight of tigecycline: 0.682%
  Total tigecycline epimer content as a % of initial weight of tigecycline: 0.547%
[1]; [3]
  Percentage of tigecycline remaining: 97%
  Total impurity content as a % of initial weight of tigecycline: 2.625%
  Total tigecycline epimer content as a % of initial weight of tigecycline: 1.95%
[1]; pH 4.5, 72 h, oxygen <1 ppm
  Percentage of tigecycline remaining: 98.50%
  Total impurity content as a % of initial weight of tigecycline: 2.365%
  Total tigecycline epimer content as a % of initial weight of tigecycline: 1.934%
[1]; [4]
  Percentage of tigecycline remaining: 100%
  Total impurity content as a % of initial weight of tigecycline: 0.29%
  Total tigecycline epimer content as a % of initial weight of tigecycline: 0.167%
[1]; [5]
  Percentage of tigecycline remaining: 101%
  Total impurity content as a % of initial weight of tigecycline: 0.691%
  Total tigecycline epimer content as a % of initial weight of tigecycline: 0.49%
[1]; [6]
  Percentage of tigecycline remaining: 99%
  Total impurity content as a % of initial weight of tigecycline: 2.632%
  Total tigecycline epimer content as a % of initial weight of tigecycline: 1.69%
[1]; [7]
  Percentage of tigecycline remaining: 100%
  Total impurity content as a % of initial weight of tigecycline: 0.31%
  Total tigecycline epimer content as a % of initial weight of tigecycline: 0.162%
[1]; [8]
  Percentage of tigecycline remaining: 99%
  Total impurity content as a % of initial weight of tigecycline: 0.865%
  Total tigecycline epimer content as a % of initial weight of tigecycline: 0.52%
[1]; [9]
  Percentage of tigecycline remaining: 97%
  Total impurity content as a % of initial weight of tigecycline: 3.221%
  Total tigecycline epimer content as a % of initial weight of tigecycline: 1.31%
[1]; [10]
  Percentage of tigecycline remaining: 100%
  Total impurity content as a % of initial weight of tigecycline: 0.31%
  Total tigecycline epimer content as a % of initial weight of tigecycline: 0.15%
[1]; pH 6.5, 0 h, oxygen <1 ppm
  Percentage of tigecycline remaining: 100.0%
  Total impurity content as a % of initial weight of tigecycline: 0.224%
  Total tigecycline epimer content as a % of initial weight of tigecycline: 0.111%
[1]; [11]
  Percentage of tigecycline remaining: 100%
  Total impurity content as a % of initial weight of tigecycline: 0.602%
  Total tigecycline epimer content as a % of initial weight of tigecycline: 0.26%
[1]; pH 6.5, 8 h, oxygen <1 ppm
  Percentage of tigecycline remaining: 100.56%
  Total impurity content as a % of initial weight of tigecycline: 0.399%
  Total tigecycline epimer content as a % of initial weight of tigecycline: 0.188%
[1]; [12]
  Percentage of tigecycline remaining: 100%
  Total impurity content as a % of initial weight of tigecycline: 1.429%
  Total tigecycline epimer content as a % of initial weight of tigecycline: 0.43%
[1]; pH 6.5, 24 h, oxygen <1 ppm
  Percentage of tigecycline remaining: 99.59%
  Total impurity content as a % of initial weight of tigecycline: 0.812%
  Total tigecycline epimer content as a % of initial weight of tigecycline: 0.45%
[1]; [13]
  Percentage of tigecycline remaining: 86%
  Total impurity content as a % of initial weight of tigecycline: 11.78%
  Total tigecycline epimer content as a % of initial weight of tigecycline: 1.08%
[1]; pH 6.5, 72 h, oxygen <1 ppm
  Percentage of tigecycline remaining: 98.03%
  Total impurity content as a % of initial weight of tigecycline: 2.654%
  Total tigecycline epimer content as a % of initial weight of tigecycline: 1.532%
[1]; [14]
  Percentage of tigecycline remaining: 100%
  Total impurity content as a % of initial weight of tigecycline: 0.30%
  Total tigecycline epimer content as a % of initial weight of tigecycline: 0.14%
[1]; pH 8.0, 0 h, oxygen <1 ppm
  Percentage of tigecycline remaining: 100.0%
  Total impurity content as a % of initial weight of tigecycline: 0.22%
  Total tigecycline epimer content as a % of initial weight of tigecycline: 0.107%
[1]; [15]
  Percentage of tigecycline remaining: 100%
  Total impurity content as a % of initial weight of tigecycline: 0.924%
  Total tigecycline epimer content as a % of initial weight of tigecycline: 0.27%
[1]; pH 8.0, 8 h, oxygen <1 ppm
  Percentage of tigecycline remaining: 100.81%
  Total impurity content as a % of initial weight of tigecycline: 0.443%
  Total tigecycline epimer content as a % of initial weight of tigecycline: 0.192%
[1]; [16]
  Percentage of tigecycline remaining: 95%
  Total impurity content as a % of initial weight of tigecycline: 3.737%
  Total tigecycline epimer content as a % of initial weight of tigecycline: 0.43%
[1]; pH 8.0, 24 h, oxygen <1 ppm
  Percentage of tigecycline remaining: 99.64%
  Total impurity content as a % of initial weight of tigecycline: 1.214%
  Total tigecycline epimer content as a % of initial weight of tigecycline: 0.425%
[1]; [17]
  Percentage of tigecycline remaining: 57%
  Total impurity content as a % of initial weight of tigecycline: 29.654%
  Total tigecycline epimer content as a % of initial weight of tigecycline: 1.23%
[1]; pH 8.0, 72 h, oxygen <1 ppm
  Percentage of tigecycline remaining: 95.98%
  Total impurity content as a % of initial weight of tigecycline: 3.461%
  Total tigecycline epimer content as a % of initial weight of tigecycline: 1.516%
[2]
  bioavailability: poor bioavailability
